Drawing on US6686343B1, “Triazolopurine derivatives, pharmaceutical compositions containing the derivatives, and adenosine A3 receptor affinitive agents” (Otsuka Pharmaceutical Factory, Inc., priority 1999, dated 2004), this text covers melting point for 10 compounds.

For orientation: melting point means the temperature, or range, at which the solid turns liquid.

A value given as a limit tells only on which side of the number the result lay.

The compound `CCOC(=O)CCc1nc2nc[nH]c2c2nc(-c3ccc(-c4ccccc4)cc3)nn12` [Example 20, 8-(4-biphenylyl)-5-(2-ethoxycarbonylethyl)-1H-1,2,4-triazolo[5,1-i]purine] had a melting point of 241.5 to 244 °C.

As for `CCOCc1nc2nc[nH]c2c2nc(-c3ccccc3)nn12` [Example 11, 5-ethoxymethyl-8-phenyl-1H-1,2,4-triazolo[5,1-i]purine], the melting point is 247 to 249 °C. The figure for `C[S+]([O-])CCc1nc2nc[nH]c2c2nc(-c3ccc(-c4ccccc4)cc3)nn12` (stereo not shown) [Example 61, 8-(4-biphenylyl)-5-(2-methylsulfinylethyl)-1H-1,2,4-triazolo[5,1-i]purine] is ≥ 234 °C (dec.); for `CC(=O)OCc1nc2nc[nH]c2c2nc(-c3ccc(-c4ccccc4)cc3)nn12` [Example 52, 8-(4-biphenylyl)-5-acetoxymethyl-1H-1,2,4-triazolo[5,1-i]purine] it is 233 to 235 °C; for `CCOP(=O)(Cc1nc2nc[nH]c2c2nc(-c3ccc(C(C)(C)C)cc3)nn12)OCC` it is 162 to 166 °C.

`CCOP(=O)(CCc1nc2nc[nH]c2c2nc(-c3ccc(-c4ccccc4)cc3)nn12)OCC` yielded a melting point not below 110 °C. For the compound `c1ccc(COCCCCc2nc3nc[nH]c3c3nc(-c4ccc(-c5ccccc5)cc4)nn23)cc1` [Example 57, 5-(4-benzyloxybutyl)-8-(4-biphenylyl)-1H-1,2,4-triazolo[5,1-i]purine], the melting point lay within 205 to 207 °C.

Take `COC(=O)CCCc1nc2nc[nH]c2c2nc(-c3ccc(Cl)cc3)nn12` [Example 30, 8-(4-chlorophenyl)-5-(3-methoxycarbonylpropyl)-1H-1,2,4-triazolo[5,1-i]purine]: the melting point fell in the range of 261 to 262.5 °C. As for `CN(C)Cc1nc2nc[nH]c2c2nc(-c3ccc(-c4ccccc4)cc3)nn12` [Example 54, 8-(4-biphenylyl)-5-dimethylaminomethyl-1H-1,2,4-triazolo[5,1-i]purine], the melting point is 284 to 286 °C (dec.).

In the case of `CC(C)(C)c1ccc(-c2nc3c4[nH]cnc4nc(CCCC(=O)O)n3n2)cc1` [Example 35, 8-(4-t-butylphenyl)-5-(3-carboxypropyl)-1H-1,2,4-triazolo[5,1-i]purine], the melting point was not below 280 °C.
